Measured values taken from US11873521B2, “Steviol glycoside and production method therefor, and sweetener composition containing same” (SUNTORY HOLDINGS LIMITED, priority 2017, dated 2024).
“Also recorded” adds a separate entry of the source.

Experiments:
[1] = background art; cited from earlier work
[2] = samples adjusted to final Brix of 2 in terms of sucrose; cited from earlier work
[3] = Evaluation of flavors of novel steviol glycosides in powder forms; assay type: in vivo; conditions: only β-form
Method: Flavors of Novel steviol glycosides 1 and 2 in powder forms were evaluated. Specifically, Compounds 15 (corresponding to Novel steviol glycoside 1) and 17 (corresponding to Novel steviol glycoside 2) obtained by chemical syntheses were subjected to high performance liquid chromatography (HPLC) to isolate only the β-form, which was made into a powder form and subjected to flavor evaluation. Panelists trained about sensory attributes of sweeteners members: Suntory Beverage and Food Ltd.) evaluated.

Solubility in water = assay type: physicochemical

SMILES | sweetness relative to sugar [1] | sweetness level assumed for preparing beverage samples [2] | undesirable flavor such as bitterness [3] | also measured
C=C1C[C@@]23CC[C@H]4[C@@](C)(CCC[C@@]4(C)C(=O)O[C@@H]4O[C@H](CO)[C@@H](O)[C@H](O)[C@H]4O)[C@@H]2CC[C@]1(O[C@@H]1O[C@H](CO)[C@@H](O)[C@H](O)[C@H]1O[C@@H]1O[C@H](CO)[C@@H](O)[C@H](O)[C@H]1O)C3 [Stevioside] | 250-300 times the sweetness of sugar | – | – | –
C=C1C[C@@]23CC[C@H]4[C@@](C)(CCC[C@@]4(C)C(=O)O[C@@H]4O[C@H](CO)[C@@H](O)[C@H](O)[C@H]4O)[C@@H]2CC[C@]1(O[C@@H]1O[C@H](CO)[C@@H](O)[C@H](O[C@@H]2O[C@H](CO)[C@@H](O)[C@H](O)[C@H]2O)[C@H]1O[C@@H]1O[C@H](CO)[C@@H](O)[C@H](O)[C@H]1O)C3 [Reb.A, rebaudioside A] | 350-450 times the sweetness of sugar | 300 | – | –
C=C1C[C@@]23CCC4[C@](C)(C(=O)O[C@@H]5OC(CO)[C@@H](O)[C@H](O)C5O[C@@H]5OC(C)[C@H](O)[C@H](O)C5O)CCC[C@@]4(C)[C@@H]2CCC1(O[C@@H]1OC(CO)[C@@H](O)[C@H](O[C@@H]2OC(CO)[C@@H](O)[C@H](O)C2O)C1O[C@@H]1OC(C)[C@H](O)[C@H](O)C1O)C3 (some centres unmarked) [Compound 15] | – | – | less undesirable flavor such as bitterness | Presence of sweetness ([3]; listed as Novel steviol glycoside 1): had sweetness; also recorded: Present; solubility in water (Solubility in water): did not dissolve in water sufficiently
C=C1C[C@@]23CC[C@H]4[C@@](C)(CCC[C@@]4(C)C(=O)O[C@@H]4O[C@H](CO)[C@@H](O)[C@H](O)[C@H]4O[C@@H]4O[C@H](CO)[C@@H](O)[C@H](O)[C@H]4O)[C@@H]2CC[C@]1(O[C@@H]1O[C@H](CO)[C@@H](O)[C@H](O[C@@H]2O[C@H](CO)[C@@H](O)[C@H](O)[C@H]2O)[C@H]1O[C@@H]1O[C@H](CO)[C@@H](O)[C@H](O)[C@H]1O)C3 [Reb.D, rebaudioside D] | – | 250 | – | –
C=C1C[C@@]23CCC4[C@](C)(C(=O)O[C@@H]5OC(CO)[C@@H](O)[C@H](O[C@@H]6OC(CO)[C@@H](O)[C@H](O)C6O)C5O[C@@H]5OC(C)[C@H](O)[C@H](O)C5O)CCC[C@@]4(C)[C@@H]2CCC1(O[C@@H]1OC(CO)[C@@H](O)[C@H](O[C@@H]2OC(CO)[C@@H](O)[C@H](O)C2O)C1O[C@@H]1OC(C)[C@H](O)[C@H](O)C1O)C3 (some centres unmarked) [Compound 17] | – | – | less undesirable flavor such as bitterness | Presence of sweetness ([3]; listed as Novel steviol glycoside 2): had sweetness; also recorded: Present; Flavor characteristics ([3]; listed as Novel steviol glycoside 2, bitterness): No bitterness; Flavor characteristics ([3]; listed as Novel steviol glycoside 2, overall flavor): Flavor resembled the mixture
